BindingDB's records for patent US20240076297 (Merck Sharp & Dohme, 2024)

Legend:
[1] = target: T1, Adenosine receptor A2b (Homo sapiens, UniProt P29275); assay: Measurement of A2A or A2B Binding Affinity Using Radioligand Binding
T1 sequence (P29275 whole entry): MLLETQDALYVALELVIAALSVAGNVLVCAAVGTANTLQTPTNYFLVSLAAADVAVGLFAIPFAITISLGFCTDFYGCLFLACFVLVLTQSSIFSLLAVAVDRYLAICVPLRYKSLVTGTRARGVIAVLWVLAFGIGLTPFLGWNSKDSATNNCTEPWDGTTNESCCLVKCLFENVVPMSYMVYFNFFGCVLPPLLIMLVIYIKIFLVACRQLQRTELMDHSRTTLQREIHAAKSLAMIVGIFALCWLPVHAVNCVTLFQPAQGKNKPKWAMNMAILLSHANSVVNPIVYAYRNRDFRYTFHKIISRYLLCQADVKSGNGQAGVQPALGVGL
Method: (§1) Method (A): 148 μL (5 μg/mL) membranes (Perkin Elmer, Cat. No. RBHA2aM400UA) and 2 μL compounds of the invention to be tested (test compound) were transferred to individual wells of a 96-well polypropylene assay plate and incubated for 15 to 30 min at room temperature. [3H] SCH58261 ((7-(2-phenylethyl)-5-amino-2-(2-furyl)-pyrazolo-[4,3-e]-1,2,4-triazolo[1,5-c]pyrimidine)) was diluted in assay buffer (50 mM Tris pH 7.4, 10 mM MgCl2, 0.005% Tween20) to a concentration of 4 nM and 50 μL transferred to each well of the assay plate. To define total and non-specific binding, wells containing 1% DMSO and 1 μM ZM241385 (Tocris Bioscience, Cat. No. 1036) respectively, were also included. The assay plate was incubated at room temperature for 60 min with agitation. […] The plate was incubated for at least 20 min, and then the amount of radioactivity remaining in each well was determined using a TopCount (Perkin Elmer) scintillation counter. After normalization to total and non-specific binding, the percent effect at each compound concentration was calculated. The plot of percent effect versus the log of compound concentration was analyzed electronically using a 4-parameter logistic fit based on the Levenberg-Marquardt algorithm to generate IC50 values.

[2] = target: Adenosine receptor A2a (Homo sapiens, UniProt P29274); assay: as above
Method: as §1

Chain of Adenosine receptor A2a (P29274 whole entry): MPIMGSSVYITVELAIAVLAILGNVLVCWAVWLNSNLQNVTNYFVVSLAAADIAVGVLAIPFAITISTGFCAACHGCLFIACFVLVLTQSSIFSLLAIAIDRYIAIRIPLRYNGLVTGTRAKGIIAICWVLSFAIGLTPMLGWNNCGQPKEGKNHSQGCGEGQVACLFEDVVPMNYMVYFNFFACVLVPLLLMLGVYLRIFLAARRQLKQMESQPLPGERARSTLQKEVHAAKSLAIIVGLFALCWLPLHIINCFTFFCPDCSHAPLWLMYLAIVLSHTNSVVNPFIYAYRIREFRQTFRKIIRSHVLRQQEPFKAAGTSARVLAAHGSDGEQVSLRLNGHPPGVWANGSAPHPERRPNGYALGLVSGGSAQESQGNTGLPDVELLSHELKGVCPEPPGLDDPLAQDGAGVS

Q: What does the source list for `COc1cccc2c1nc(N)n1nc(CCS(=O)(=O)C(F)(F)F)nc21` [US20240076297, Example 13.5]?
A: IC50 [1]: 81.3 nM; IC50 [2]: 10.9 nM
